Data from patent US4647586A, “Pharmaceutical oil-in-water type micro-emulsion” (priority 1984, dated 1987).

Legend:
[1] = system: brewer's yeast-induced fever; test: Effects on body temperature in pyretic rats (antipyretic activity); type: in vivo, SD-strain male rats; conditions: iv, 17 h, read-out: ED50 (dose reducing body temperature by at least 1.5° C. in 50% of the rats)
Protocol: (a) Experimental animals SD-strain male rats (120-185 g).
(§1) (b) Test drugs: The same as in A-1 [Test 2].
Male Sprague-Dawley rats, weighing 120-185 g, were injected subcutaneously in the nape of the neck with 2 ml of a 20% suspension of dried brewers yeast in physiological saline. Drugs and vehicles were administered intravenously 17 hours after treatment of yeast suspension. Rectal temperature was recorded with a thermistor type thermometer (Natsume Seisakusho, BMA-77 Type) just prior to drug administration and at 1/2, 1, 2 and 4 hours after drug administration.

[2] = system: Adjuvant-induced polyarthritis; test: Adjuvant-induced polyarthritis in rats, adjuvant-injected paw [Test 2]; type: in vivo, SD-strain female rats
Protocol: (a) Experimental animals: SD-strain famale rats 140-180g).
as §1
Rats were anesthetized with ether inhalation, and 0.6 mg of Mycobacterium butyricum suspended in 0.1 ml of white paraffin oil was immediately injected intradermally into the planter surface of the left hind paw of each rat via a 27 gauge needle fitted to a 0.5 ml syringe (day 0). On the 14th day after the adjuvant injection, arthritis-established rats selected by development of secondary lesions were used. Volumes of both hind paws in arthritis-established rats were measured by a plethysmometer (UGO BASILE), and the rats were randomized on the basis of the edema volume in the adjuvant-injected paw. Once daily, beginning on the 14th day up to the 18th day, drugs and vehicles were administered intravenously. Measurements of both paw volumes were performed every day from the 15th day up to the 18th day, and on the 21st day and the 24th day. The inhibition percent were calculated in accordance with the calculation formula as in [Test 1] of A-1.

[3] = system: Carrageenin-induced paw edema; test: Carrageenin-induced paw edema in rats [Test 2]; type: in vivo, SD-strain male rats
Protocol: (a) Experimental animals: SD-strain male rats (120-180 g).
A micro-emulsion containing ethyl 4-biphenylylacetate prepared as in Examples 11, 12, 13 and 14 given hereinafter was administered at a dose of 5 ml per kg of the animals. Venolipid® (Morishita Pharmaceutical Co., Ltd.) was used as a vehicle control. As control drugs, a solution or suspension of ethyl 4-biphenylylacetate in physiological saline containing 0.5% Cremophor EL® (Sigma Chemical Company, a solubilizing agent), 0.2% of polyethylene glycol 400 and 10% of dimethyl sulfoxide, a physiological saline solution of sodium 4-biphenylylacetate and a physiological saline solution of Aspirin DL-lysine [Venopirin®, Green Cross Co.] were used. As the vehicle control of the control drugs, the above solvents were used.
A 1% carrageenin solution in physiological saline was injected subcutaneously in an amount of 0.05 ml into the planter surface of the left hind paw of each rat via a 25 gauge needle fitted to a 0.25 ml syringe. One hour after carrageenin injection, the rats were randomized on the basis of the edema volume, and intravenous administration of the drugs and vehicles followed immediately. The volume of the left hind paw was measured by a plethysmometer (Ugo Basile) prior to the injection of the carrageenin solution and at 2, 3, 4, 5 and 6 hours after the carrageenin injection. As the volume of edema, an increase in the paw volume was taken.
The inhibition percents were calculated in accordance with the same calculation formula as in Test 1.

[4] = system: abnormal 3-legged gait (brewers yeast-inflamed paw); test: Reversal of abnormal 3-legged gait in rats (analgesic activity); type: in vivo, SD-strain male rats; conditions: Rattus norvegicus, iv, read-out: ED50 (dose causing at least 50% reversal of gait score in 50% of the rats)
Protocol: (a) Experimental animals: SD-strain male rats (120-165 g).
as §1
A 40% suspension of dried brewers yeast in physiological saline was injected (0.25 ml/rat) subcutaneously into the planter surface of the left hind paw of each rat. Three hours later, the walking gait on a wire mesh platform was assessed for each rat.
0 = Normal gait in the presence of a severely
0.5 = As above, with intermittent mild limping.
1.0 = Constant limping, but continuous use of
1.5 = Limping with occasional 3-legged gait
2.0 = Continous 3-Legged gait and/or only the
Any rat not showing a gait score of 2 was eliminated from this test. Drugs and vehicles were then administered intravenously. Measurements of the gait were made at 1, 2, 3 and 4 hours after drug administration.

CC(=O)Oc1ccccc1C(=O)O (racemic) [Aspirin-DL.Lysine]
ED50 [1]: 76.3 mg/kg
Inhibition (%) ([2]; 50 mg/kg/day i.v. as aspirin, day 15): -2.7%
Inhibition (%) ([2]; 50 mg/kg/day i.v. as aspirin, day 16): -5.2%
Inhibition (%) ([2]; 50 mg/kg/day i.v. as aspirin, day 17): -3.8%
Inhibition (%) ([2]; 50 mg/kg/day i.v. as aspirin, day 18): -2.6%
Inhibition (%) ([2]; 50 mg/kg/day i.v. as aspirin, day 21): -12.4%
Inhibition (%) ([2]; 50 mg/kg/day i.v. as aspirin, day 24): -20.0%
Inhibition (%) ([2]; 100 mg/kg/day i.v. as aspirin, day 15): 4.0%
Inhibition (%) ([2]; 100 mg/kg/day i.v. as aspirin, day 16): 9.2%
Inhibition (%) ([2]; 100 mg/kg/day i.v. as aspirin, day 17): 13.2%
Inhibition (%) ([2]; 100 mg/kg/day i.v. as aspirin, day 18): 6.8%
Inhibition (%) ([2]; 100 mg/kg/day i.v. as aspirin, day 21): 4.2%
Inhibition (%) ([2]; 100 mg/kg/day i.v. as aspirin, day 24): -2.8%
Inhibition (%) ([2]; 200 mg/kg/day i.v. as aspirin, day 15): 6.7%
Inhibition (%) ([2]; 200 mg/kg/day i.v. as aspirin, day 16): 11.3%
Inhibition (%) ([2]; 200 mg/kg/day i.v. as aspirin, day 17): 16.4%
Inhibition (%) ([2]; 200 mg/kg/day i.v. as aspirin, day 18): 15.3%
Inhibition (%) ([2]; 200 mg/kg/day i.v. as aspirin, day 21): 7.2%
Inhibition (%) ([2]; 200 mg/kg/day i.v. as aspirin, day 24): 6.2%
ED20 ([2]; Rattus norvegicus, iv, read-out: ED20 (dose required to cause a 20% inhibition of adjuvant-injected paw volume)): 320 mg/kg
Inhibition (%) ([3]; 50 mg/kg i.v. as aspirin, 2 h after carrageenin): 24.2%
Inhibition (%) ([3]; 50 mg/kg i.v. as aspirin, 3 h after carrageenin): 26.7%
Inhibition (%) ([3]; 50 mg/kg i.v. as aspirin, 4 h after carrageenin): 35.7%
Inhibition (%) ([3]; 50 mg/kg i.v. as aspirin, 5 h after carrageenin): 29.6%
Inhibition (%) ([3]; 50 mg/kg i.v. as aspirin, 6 h after carrageenin): 30.0%
Inhibition (%) ([3]; 100 mg/kg i.v. as aspirin, 2 h after carrageenin): 24.2%
Inhibition (%) ([3]; 100 mg/kg i.v. as aspirin, 3 h after carrageenin): 26.7%
Inhibition (%) ([3]; 100 mg/kg i.v. as aspirin, 4 h after carrageenin): 26.8%
Inhibition (%) ([3]; 100 mg/kg i.v. as aspirin, 5 h after carrageenin): 22.2%
Inhibition (%) ([3]; 100 mg/kg i.v. as aspirin, 6 h after carrageenin): 20.0%
Inhibition (%) ([3]; 200 mg/kg i.v. as aspirin, 2 h after carrageenin): 37.9%
Inhibition (%) ([3]; 200 mg/kg i.v. as aspirin, 3 h after carrageenin): 43.3%
Inhibition (%) ([3]; 200 mg/kg i.v. as aspirin, 4 h after carrageenin): 50.0%
Inhibition (%) ([3]; 200 mg/kg i.v. as aspirin, 5 h after carrageenin): 42.6%
Inhibition (%) ([3]; 200 mg/kg i.v. as aspirin, 6 h after carrageenin): 44.0%
ED30 ([3]; Rattus norvegicus, iv, read-out: ED30 (dose required to cause a 30% inhibition of edema volume)): 81.6 mg/kg
ED50 [4]: 93.2 mg/kg
